Data from PubChem BioAssay (NCI).
Several values for one entry are separate records, joined by “and”; a condition that tells them apart may be missing. Identical values can stand only once.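 Following 48 hours of exposure in 96-well plates, responses at five concentrations were used to interpolate endpoints linearly. The concentration for 50% growth inhibition is given as GI50. At the TGI there is no net growth.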

Assays:
Test in all cases: NCI-60 cell line screen, 48 h
[1] = system: SK-MEL-2 melanoma
[2] = system: UO-31 renal
[3] = system: SNB-75 CNS
[4] = system: HCT-116 colon
[5] = system: NCI-H522 lung
[6] = system: K-562 leukemia
[7] = system: NCI/ADR-RES ovarian
[8] = system: NCI-H23 lung
[9] = system: OVCAR-8 ovarian
[10] = system: HOP-62 NSCLC

Compound	TGI [1]	TGI [2]	TGI [3]	TGI [4]	TGI [5]	TGI [6]	TGI [7]	TGI [8]	TGI [9]	TGI [10]	GI50 [1]	GI50 [2]	GI50 [3]	GI50 [4]	GI50 [5]	GI50 [6]	GI50 [7]	GI50 [8]	GI50 [9]	GI50 [10]
CCCCCCCCCCCCCCCC(=O)OCC(C[As](=O)(O)O)OC(=O)CCCCCCCCCCCCCCC (stereo not given)	> 100 µM	> 100 µM	> 96.7 µM	> 100 µM	> 100 µM	> 100 µM	> 100 µM	> 100 µM	> 100 µM	> 100 µM	–	–	–	–	–	–	–	–	–	–
O=C1/C(=C(/c2ccccc2)N2CCOCC2)Cc2ccccc21	6.34 µM	1.08 µM	3.66 µM	2.44 µM	1.89 µM	–	21.4 µM	8.38 µM	13.7 µM	27.1 µM	2.03 µM	0.455 µM	1.48 µM	0.919 µM	0.492 µM	3.42 µM	4.68 µM	2.64 µM	3.9 µM	12.5 µM
COc1cc2c3c(n(CCCN)c(=O)c2cc1OC)-c1ccc(C#N)cc1C3=O	> 100 µM	71.2 µM	16.1 µM	32.3 µM	> 100 µM	65.4 µM	> 100 µM	25.6 µM	24.9 µM	19.1 µM	26.2 µM	19.1 µM	0.562 µM	15.8 µM	9.61 µM	–	48 µM	9.02 µM	5.54 µM	4.01 µM
N#Cc1cc(-c2cc3ccccc3o2)oc1N	4.49 µM	18.2 µM	15.5 µM	12.2 µM	12.6 µM	> 100 µM	> 100 µM	22.8 µM	> 100 µM	11.3 µM	1.29 µM	3.72 µM	3.61 µM	3.65 µM	2.41 µM	3.58 µM	3.71 µM	3.9 µM	4.32 µM	3.18 µM
COC(=O)Nc1nc2ccc(C3(c4ccc(F)cc4)OCCO3)cc2[nH]1	> 100 µM	> 100 µM	98.4 µM	> 49.6 µM	2.65 µM	> 100 µM	> 35.4 µM	> 100 µM	> 100 µM	> 100 µM	0.427 µM	3.39 µM	0.262 µM	0.409 µM	0.222 µM	0.112 µM	0.28 µM	1.14 µM	0.527 µM	3.24 µM
CC1=CC(=O)C=CC1=O	66.3 µM	26 µM and 17.6 µM	24.8 µM	29.8 µM	24 µM and 4.1 µM	–	43 µM and 64.4 µM	60 µM	41.4 µM	75.3 µM	50.7 µM and 23.8 µM	12.7 µM and 4.8 µM	3.02 µM and 11.5 µM	14.8 µM and 2.97 µM	11.2 µM and 1.67 µM	3 µM and 4.38 µM	20.6 µM and 24 µM	26.6 µM and 20.5 µM	17.7 µM	35.9 µM and 25.3 µM
CCc1nc(N)nc(N)c1-c1ccc(NC)c([N+](=O)[O-])c1	> 92.5 µM	> 100 µM	> 100 µM	> 100 µM	> 57.2 µM	> 25.8 µM	> 100 µM	> 100 µM	> 100 µM	37.7 µM	–	–	–	–	–	–	–	–	–	–
Cc1cc2ncnn2cc1Nc1ncc2c(n1)n(C1CCOCC1)c(=O)n2C	71.5 µM	> 100 µM	6.96 µM	> 100 µM	> 100 µM	> 100 µM	> 100 µM	> 100 µM	> 100 µM	78.2 µM	12.2 µM	2.83 µM	1.12 µM	10.7 µM	3.74 µM	16 µM	19.9 µM	14.3 µM	11.5 µM	3.95 µM
C/C(=N\Nc1ccc(Cl)cn1)c1ccc2ccccc2n1	> 100 µM	12.9 µM	> 100 µM	> 100 µM	> 100 µM	> 100 µM	> 100 µM	> 100 µM	> 100 µM	> 100 µM	6.67 µM	1.74 µM	3.3 µM	1.59 µM	3.24 µM	3.13 µM	2.16 µM	3.55 µM	3.04 µM	2.83 µM
CN(C)CCNc1ccc(CO)c2oc3ccc(O)cc3c(=O)c12	30.7 µM	31.3 µM	47.1 µM	52.2 µM	17.1 µM	32.4 µM	74.3 µM	24.6 µM	14.4 µM	27.3 µM	–	–	–	–	–	–	–	–	–	–
COc1ccc(C2=C(Cl)c3cc(OC)c(OC)cc3C2Cl)cc1 (stereo not given)	26.3 µM	13.4 µM	8.46 µM	31.3 µM	> 27.5 µM	> 53.1 µM	33.3 µM	> 54.5 µM	50.6 µM	32.2 µM	–	–	–	–	–	–	–	–	–	–
COc1ccc(C(=O)c2cc(OC)c(OC)c(OC)c2)cc1/C=C/C(=O)c1ccc(F)cc1	38.2 µM	3.49 µM	20.7 µM	3.57 µM	5.34 µM	> 100 µM	73.2 µM	31.1 µM	37.8 µM	26.7 µM	9.89 µM	1.77 µM	3.18 µM	1.75 µM	2.02 µM	2.34 µM	3.69 µM	6.2 µM	3.7 µM	3.92 µM
COc1cc2c(cc1OCCCCC(=O)Nc1cc3c4ccccc4ccc3c3ccccc13)N=C[C@@H]1CCCN1C2=O	58.8 µM	–	> 52.9 µM	88.8 µM	> 100 µM	> 38.9 µM	> 85.7 µM	47.5 µM	20 µM	40.8 µM	8.4 µM	1.22 µM	19 µM	25.1 µM	4.25 µM	1.55 µM	32.2 µM	20 µM	7.27 µM	10.1 µM
Nc1nc(Nc2cccnc2)sc1C(=O)c1ccccc1F	9.79 µM	> 26.5 µM	4.74 µM	> 100 µM	> 64.1 µM	> 65.4 µM	12.2 µM	12.4 µM	> 100 µM	> 93.8 µM	2.92 µM	2.45 µM	0.58 µM	2.51 µM	8.26 µM	6.69 µM	0.844 µM	2.55 µM	3.9 µM	6.67 µM
COc1ccc(-c2[nH]c3ccc(OC)cc3c2/C=C(\C#N)S(=O)(=O)c2ccccc2)cc1	> 69.3 µM	> 27.6 µM	45.5 µM	> 100 µM	> 20.7 µM	–	9.22 µM	> 33.3 µM	> 35.2 µM	48.1 µM	6.42 µM	2.69 µM	0.561 µM	0.53 µM	1.58 µM	0.475 µM	0.479 µM	0.965 µM	2.97 µM	2.97 µM
COc1c(C(=O)/C=C/c2ccccc2)c(O)cc2occc12	25.2 µM	11.8 µM	15.1 µM	12.5 µM	15.7 µM	> 100 µM	6.32 µM	20.8 µM	12.5 µM	25.2 µM	12.4 µM	3.14 µM	2.42 µM	3.72 µM	4.29 µM	4.42 µM	2.42 µM	6.12 µM	3.62 µM	11.3 µM
CC12OC(C(=O)C13CC3)C1C(=O)c3ccc4c(ccc5ccccc54)c3C(=O)C12 (stereo not given)	> 100 µM	> 100 µM	> 100 µM	> 100 µM	> 100 µM	> 100 µM	> 100 µM	> 100 µM	> 100 µM	99.8 µM	53.1 µM	77.3 µM	51.3 µM	43.7 µM	51.3 µM	47.6 µM	41.2 µM	24.2 µM	30.4 µM	28.9 µM
NS(=O)(=O)c1ccc(-c2ccc3c(NC(=O)C4CC4)n[nH]c3c2)cc1	> 25 µM	> 25 µM	> 25 µM	> 25 µM	> 25 µM	> 25 µM	> 25 µM	> 25 µM	> 25 µM	> 25 µM	> 25 µM	> 25 µM	> 25 µM	> 25 µM	> 25 µM	> 25 µM	> 25 µM	> 25 µM	> 25 µM	> 25 µM
CC(=O)O[C@H]1CCC2[C@@H]3CC[C@]4(C)CC(=O)C=C[C@]4(C)C3CC[C@@]21C (stereo not given in full)	38.7 µM	> 100 µM	> 93.1 µM	32.1 µM	76.9 µM	> 100 µM	40.5 µM	53.8 µM	34.2 µM	97.9 µM	–	–	–	–	–	–	–	–	–	–
